For assay [1], the target named is Protein-tyrosine kinase 2-beta (Homo sapiens) (UniProt Q14289). Put plainly: Residual activity of PYK2 at 0.1 uM by microplate scintillation counting.
Assay [2] relates to T1, Receptor-type tyrosine-protein kinase FLT3 (Homo sapiens), P36888 [D835Y].
T1 sequence (whole entry): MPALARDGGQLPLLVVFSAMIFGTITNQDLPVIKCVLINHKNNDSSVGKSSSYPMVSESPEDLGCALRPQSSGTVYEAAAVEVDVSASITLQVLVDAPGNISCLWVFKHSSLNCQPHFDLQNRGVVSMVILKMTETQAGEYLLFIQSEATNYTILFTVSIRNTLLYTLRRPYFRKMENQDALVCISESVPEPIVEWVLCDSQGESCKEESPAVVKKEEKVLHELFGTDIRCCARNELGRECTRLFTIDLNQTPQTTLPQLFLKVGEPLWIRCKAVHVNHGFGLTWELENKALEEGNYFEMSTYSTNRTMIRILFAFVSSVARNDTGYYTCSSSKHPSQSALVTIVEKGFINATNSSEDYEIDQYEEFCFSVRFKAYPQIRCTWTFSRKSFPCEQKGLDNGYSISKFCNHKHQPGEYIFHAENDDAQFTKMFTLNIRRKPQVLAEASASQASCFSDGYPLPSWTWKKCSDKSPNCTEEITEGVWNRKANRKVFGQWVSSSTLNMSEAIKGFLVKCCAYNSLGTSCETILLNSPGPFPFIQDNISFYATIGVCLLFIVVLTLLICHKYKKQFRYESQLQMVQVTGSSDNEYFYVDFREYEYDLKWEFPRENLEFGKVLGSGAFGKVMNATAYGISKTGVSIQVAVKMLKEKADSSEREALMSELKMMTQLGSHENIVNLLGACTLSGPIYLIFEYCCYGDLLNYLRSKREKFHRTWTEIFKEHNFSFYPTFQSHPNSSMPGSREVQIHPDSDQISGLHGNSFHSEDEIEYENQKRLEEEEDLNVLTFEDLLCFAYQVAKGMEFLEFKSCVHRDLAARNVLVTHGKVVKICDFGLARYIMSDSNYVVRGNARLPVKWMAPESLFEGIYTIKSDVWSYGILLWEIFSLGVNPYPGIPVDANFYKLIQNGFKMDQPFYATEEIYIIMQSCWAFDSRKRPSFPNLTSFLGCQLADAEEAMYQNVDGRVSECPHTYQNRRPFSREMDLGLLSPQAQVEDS
Put plainly: Residual activity of FLT3 D835Y mutant at 10 uM by microplate scintillation counting.

Assay [3] addresses Receptor tyrosine-protein kinase erbB-4 (Homo sapiens) (UniProt Q15303). Put plainly: Residual activity of ERBB4 at 0.1 uM by microplate scintillation counting.
Assay [4] concerns the target Glycogen synthase kinase-3 beta (Homo sapiens) (UniProt P49841). Put plainly: Residual activity of GSK3-beta at 0.1 uM by microplate scintillation counting.
Assay [5] deals with Platelet-derived growth factor receptor alpha (Homo sapiens) (UniProt P16234). Put plainly: Residual activity of PDGFRalpha at 10 uM by microplate scintillation counting.
Assay [6] concerns the target T2, Tyrosine-protein kinase ITK/TSK (Homo sapiens) (UniProt Q08881).
T2 sequence (whole entry): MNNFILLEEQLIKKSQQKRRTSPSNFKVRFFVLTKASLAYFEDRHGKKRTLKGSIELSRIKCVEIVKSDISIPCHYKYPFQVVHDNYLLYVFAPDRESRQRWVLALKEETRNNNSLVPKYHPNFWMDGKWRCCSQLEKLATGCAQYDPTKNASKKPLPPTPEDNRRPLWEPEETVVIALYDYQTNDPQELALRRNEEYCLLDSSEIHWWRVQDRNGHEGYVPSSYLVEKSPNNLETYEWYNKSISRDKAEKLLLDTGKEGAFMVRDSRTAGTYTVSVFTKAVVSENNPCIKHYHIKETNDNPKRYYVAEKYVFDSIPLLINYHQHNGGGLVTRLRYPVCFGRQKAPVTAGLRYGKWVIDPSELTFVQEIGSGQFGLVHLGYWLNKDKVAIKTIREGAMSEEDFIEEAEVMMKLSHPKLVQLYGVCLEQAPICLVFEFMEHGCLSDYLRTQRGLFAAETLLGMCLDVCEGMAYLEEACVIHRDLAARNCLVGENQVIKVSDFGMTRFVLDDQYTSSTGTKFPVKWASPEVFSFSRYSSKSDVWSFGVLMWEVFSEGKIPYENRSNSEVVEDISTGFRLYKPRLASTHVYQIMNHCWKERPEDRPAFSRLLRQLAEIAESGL
Put plainly: Residual activity of ITK at 1 uM by microplate scintillation counting.

Assay [7] concerns the target Mitogen-activated protein kinase 1 (Homo sapiens) (UniProt P28482). Put plainly: Residual activity of ERK2 at 1 uM by microplate scintillation counting.
Assay [8] has as its target Mitogen-activated protein kinase kinase kinase 14 (Homo sapiens) (UniProt Q99558). Put plainly: Residual activity of NIK at 0.1 uM by microplate scintillation counting.
Assay [9] concerns the target Proto-oncogene tyrosine-protein kinase ROS (Homo sapiens) (UniProt P08922). Put plainly: Residual activity of ROS at 1 uM by microplate scintillation counting.
Assay [10] deals with Platelet-derived growth factor receptor alpha (Homo sapiens) (UniProt P16234). Put plainly: Residual activity of PDGFRalpha at 1 uM by microplate scintillation counting.
For assay [11], the target named is T2, Tyrosine-protein kinase ITK/TSK (Homo sapiens). Put plainly: Residual activity of ITK at 10 uM by microplate scintillation counting.
The target in assay [12] is ALK tyrosine kinase receptor (Homo sapiens) (UniProt Q9UM73). Put plainly: Residual activity of ALK at 0.1 uM by microplate scintillation counting.
The target in assay [13] is T3, MAP kinase-activated protein kinase 5 (Homo sapiens) (UniProt Q8IW41).
T3 sequence (whole entry): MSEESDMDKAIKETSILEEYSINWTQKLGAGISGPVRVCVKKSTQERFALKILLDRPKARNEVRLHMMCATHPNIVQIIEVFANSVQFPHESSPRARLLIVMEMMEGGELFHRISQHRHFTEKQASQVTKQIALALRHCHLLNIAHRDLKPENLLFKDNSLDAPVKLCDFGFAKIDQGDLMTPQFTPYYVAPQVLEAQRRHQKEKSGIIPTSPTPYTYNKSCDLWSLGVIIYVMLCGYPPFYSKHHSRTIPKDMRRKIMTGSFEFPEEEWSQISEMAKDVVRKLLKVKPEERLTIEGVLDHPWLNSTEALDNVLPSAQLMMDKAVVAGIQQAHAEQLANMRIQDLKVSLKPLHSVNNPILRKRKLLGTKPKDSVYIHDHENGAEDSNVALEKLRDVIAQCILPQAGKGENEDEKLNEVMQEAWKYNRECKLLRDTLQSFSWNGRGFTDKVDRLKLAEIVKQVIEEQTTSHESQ
Put plainly: Residual activity of MAPKAPK5 at 0.1 uM by microplate scintillation counting.

Assay [14] has as its target Calcium/calmodulin-dependent protein kinase type II subunit delta (Homo sapiens) (UniProt Q13557). Put plainly: Residual activity of CAMK2D at 1 uM by microplate scintillation counting.
Assay [15] deals with Casein kinase II subunit alpha (Homo sapiens) (UniProt P68400). Put plainly: Residual activity of CK2alpha1 at 0.1 uM by microplate scintillation counting.
The target in assay [16] is Serine/threonine-protein kinase Chk2 (Homo sapiens) (UniProt O96017). Put plainly: Residual activity of CHK2 at 0.1 uM by microplate scintillation counting.

Each structure is given as a SMILES string.

Calcium/calmodulin-dependent protein kinase type II subunit delta (Homo sapiens), sequence (Q13557 whole entry): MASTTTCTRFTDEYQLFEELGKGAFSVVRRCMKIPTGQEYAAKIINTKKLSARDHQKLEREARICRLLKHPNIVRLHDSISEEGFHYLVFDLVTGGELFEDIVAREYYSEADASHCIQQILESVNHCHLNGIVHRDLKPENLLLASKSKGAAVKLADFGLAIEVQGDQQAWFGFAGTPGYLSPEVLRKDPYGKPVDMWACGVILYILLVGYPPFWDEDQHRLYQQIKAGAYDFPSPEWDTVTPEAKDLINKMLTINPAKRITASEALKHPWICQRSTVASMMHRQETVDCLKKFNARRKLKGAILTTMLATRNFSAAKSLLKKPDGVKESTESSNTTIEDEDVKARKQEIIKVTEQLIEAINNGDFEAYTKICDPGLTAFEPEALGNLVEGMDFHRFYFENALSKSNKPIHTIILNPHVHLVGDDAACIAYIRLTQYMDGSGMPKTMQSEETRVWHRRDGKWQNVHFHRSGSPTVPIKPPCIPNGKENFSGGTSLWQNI
Proto-oncogene tyrosine-protein kinase ROS (Homo sapiens), sequence (P08922 whole entry): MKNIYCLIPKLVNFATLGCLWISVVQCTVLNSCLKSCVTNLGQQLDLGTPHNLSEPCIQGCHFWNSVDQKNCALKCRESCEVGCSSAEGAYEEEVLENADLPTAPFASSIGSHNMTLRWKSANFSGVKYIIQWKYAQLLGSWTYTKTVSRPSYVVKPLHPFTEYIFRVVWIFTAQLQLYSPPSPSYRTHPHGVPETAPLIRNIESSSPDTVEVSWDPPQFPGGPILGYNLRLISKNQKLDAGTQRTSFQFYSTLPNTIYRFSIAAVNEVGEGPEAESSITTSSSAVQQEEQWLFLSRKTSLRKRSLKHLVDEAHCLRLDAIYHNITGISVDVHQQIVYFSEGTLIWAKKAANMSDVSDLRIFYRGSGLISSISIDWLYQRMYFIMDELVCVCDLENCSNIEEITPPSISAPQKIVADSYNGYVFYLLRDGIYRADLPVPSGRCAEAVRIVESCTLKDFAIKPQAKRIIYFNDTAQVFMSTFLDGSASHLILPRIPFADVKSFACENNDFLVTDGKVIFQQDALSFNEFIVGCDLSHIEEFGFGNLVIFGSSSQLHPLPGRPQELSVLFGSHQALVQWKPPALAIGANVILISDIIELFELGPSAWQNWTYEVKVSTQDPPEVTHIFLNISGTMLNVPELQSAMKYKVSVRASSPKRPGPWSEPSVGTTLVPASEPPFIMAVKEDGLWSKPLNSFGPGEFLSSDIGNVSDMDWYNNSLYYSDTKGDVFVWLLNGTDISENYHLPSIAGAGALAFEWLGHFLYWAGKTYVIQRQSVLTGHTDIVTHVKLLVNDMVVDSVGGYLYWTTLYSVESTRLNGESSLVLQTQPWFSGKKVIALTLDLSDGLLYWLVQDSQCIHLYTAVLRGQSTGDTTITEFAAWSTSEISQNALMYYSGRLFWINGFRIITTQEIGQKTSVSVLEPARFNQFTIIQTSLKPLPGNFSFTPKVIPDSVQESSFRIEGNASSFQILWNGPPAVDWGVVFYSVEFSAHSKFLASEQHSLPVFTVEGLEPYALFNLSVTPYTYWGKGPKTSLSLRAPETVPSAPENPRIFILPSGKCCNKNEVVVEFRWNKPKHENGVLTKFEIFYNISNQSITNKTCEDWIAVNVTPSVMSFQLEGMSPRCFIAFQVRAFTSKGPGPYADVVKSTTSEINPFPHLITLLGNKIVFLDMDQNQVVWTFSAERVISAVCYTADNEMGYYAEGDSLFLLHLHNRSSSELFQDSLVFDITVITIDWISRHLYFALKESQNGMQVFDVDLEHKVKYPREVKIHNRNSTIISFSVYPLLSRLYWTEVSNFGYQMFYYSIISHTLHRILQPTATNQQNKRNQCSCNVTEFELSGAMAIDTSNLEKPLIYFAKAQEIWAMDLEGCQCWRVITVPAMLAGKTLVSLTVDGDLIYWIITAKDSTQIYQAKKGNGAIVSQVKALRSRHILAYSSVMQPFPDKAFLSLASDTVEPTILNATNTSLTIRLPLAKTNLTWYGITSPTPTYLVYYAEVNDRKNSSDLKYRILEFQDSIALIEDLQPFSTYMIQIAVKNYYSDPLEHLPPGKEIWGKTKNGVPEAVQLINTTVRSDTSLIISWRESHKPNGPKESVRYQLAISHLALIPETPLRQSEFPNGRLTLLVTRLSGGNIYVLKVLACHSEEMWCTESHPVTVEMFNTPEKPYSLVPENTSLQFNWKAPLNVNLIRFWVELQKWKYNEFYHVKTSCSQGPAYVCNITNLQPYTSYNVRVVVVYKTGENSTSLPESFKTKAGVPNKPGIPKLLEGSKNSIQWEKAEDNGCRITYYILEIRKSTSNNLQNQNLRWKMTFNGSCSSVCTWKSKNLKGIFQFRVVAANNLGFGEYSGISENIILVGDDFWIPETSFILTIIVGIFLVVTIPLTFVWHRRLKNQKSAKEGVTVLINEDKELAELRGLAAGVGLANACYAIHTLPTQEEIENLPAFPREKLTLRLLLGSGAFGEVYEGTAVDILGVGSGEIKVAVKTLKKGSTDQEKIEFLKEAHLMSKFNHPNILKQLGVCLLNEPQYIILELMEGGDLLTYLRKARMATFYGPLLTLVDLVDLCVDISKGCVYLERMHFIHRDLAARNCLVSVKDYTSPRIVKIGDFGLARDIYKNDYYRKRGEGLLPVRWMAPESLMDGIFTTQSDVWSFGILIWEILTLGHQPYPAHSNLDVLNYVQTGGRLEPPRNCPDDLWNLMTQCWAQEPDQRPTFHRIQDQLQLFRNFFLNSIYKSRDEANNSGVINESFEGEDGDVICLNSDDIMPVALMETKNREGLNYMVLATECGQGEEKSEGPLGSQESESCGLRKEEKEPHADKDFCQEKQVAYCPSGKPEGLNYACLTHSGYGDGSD
Mitogen-activated protein kinase kinase kinase 14 (Homo sapiens), sequence (Q99558 whole entry, looked up): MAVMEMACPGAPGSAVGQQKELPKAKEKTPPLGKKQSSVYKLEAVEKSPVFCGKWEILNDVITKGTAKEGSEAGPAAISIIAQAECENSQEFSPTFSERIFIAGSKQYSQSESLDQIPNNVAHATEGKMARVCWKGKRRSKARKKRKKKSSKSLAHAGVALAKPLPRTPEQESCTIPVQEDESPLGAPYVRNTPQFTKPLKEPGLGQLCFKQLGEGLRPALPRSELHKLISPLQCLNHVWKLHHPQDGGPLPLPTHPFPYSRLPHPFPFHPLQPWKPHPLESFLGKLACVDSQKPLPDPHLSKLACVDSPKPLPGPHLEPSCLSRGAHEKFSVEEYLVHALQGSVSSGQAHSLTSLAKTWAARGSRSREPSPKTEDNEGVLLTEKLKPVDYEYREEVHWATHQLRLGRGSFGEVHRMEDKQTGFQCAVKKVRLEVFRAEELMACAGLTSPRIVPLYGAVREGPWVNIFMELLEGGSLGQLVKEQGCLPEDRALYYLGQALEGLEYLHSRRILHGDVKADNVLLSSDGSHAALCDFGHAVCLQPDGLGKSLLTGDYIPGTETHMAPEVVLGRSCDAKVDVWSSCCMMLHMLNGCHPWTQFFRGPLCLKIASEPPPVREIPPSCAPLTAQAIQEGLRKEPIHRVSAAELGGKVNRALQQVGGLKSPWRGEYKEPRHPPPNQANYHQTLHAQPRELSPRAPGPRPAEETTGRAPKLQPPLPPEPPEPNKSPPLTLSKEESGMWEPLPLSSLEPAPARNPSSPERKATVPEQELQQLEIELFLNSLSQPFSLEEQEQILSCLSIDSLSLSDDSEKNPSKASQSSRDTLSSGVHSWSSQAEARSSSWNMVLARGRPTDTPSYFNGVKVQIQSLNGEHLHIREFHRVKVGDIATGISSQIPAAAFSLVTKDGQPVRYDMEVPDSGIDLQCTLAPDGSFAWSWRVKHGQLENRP
Receptor tyrosine-protein kinase erbB-4 (Homo sapiens), sequence (Q15303 whole entry): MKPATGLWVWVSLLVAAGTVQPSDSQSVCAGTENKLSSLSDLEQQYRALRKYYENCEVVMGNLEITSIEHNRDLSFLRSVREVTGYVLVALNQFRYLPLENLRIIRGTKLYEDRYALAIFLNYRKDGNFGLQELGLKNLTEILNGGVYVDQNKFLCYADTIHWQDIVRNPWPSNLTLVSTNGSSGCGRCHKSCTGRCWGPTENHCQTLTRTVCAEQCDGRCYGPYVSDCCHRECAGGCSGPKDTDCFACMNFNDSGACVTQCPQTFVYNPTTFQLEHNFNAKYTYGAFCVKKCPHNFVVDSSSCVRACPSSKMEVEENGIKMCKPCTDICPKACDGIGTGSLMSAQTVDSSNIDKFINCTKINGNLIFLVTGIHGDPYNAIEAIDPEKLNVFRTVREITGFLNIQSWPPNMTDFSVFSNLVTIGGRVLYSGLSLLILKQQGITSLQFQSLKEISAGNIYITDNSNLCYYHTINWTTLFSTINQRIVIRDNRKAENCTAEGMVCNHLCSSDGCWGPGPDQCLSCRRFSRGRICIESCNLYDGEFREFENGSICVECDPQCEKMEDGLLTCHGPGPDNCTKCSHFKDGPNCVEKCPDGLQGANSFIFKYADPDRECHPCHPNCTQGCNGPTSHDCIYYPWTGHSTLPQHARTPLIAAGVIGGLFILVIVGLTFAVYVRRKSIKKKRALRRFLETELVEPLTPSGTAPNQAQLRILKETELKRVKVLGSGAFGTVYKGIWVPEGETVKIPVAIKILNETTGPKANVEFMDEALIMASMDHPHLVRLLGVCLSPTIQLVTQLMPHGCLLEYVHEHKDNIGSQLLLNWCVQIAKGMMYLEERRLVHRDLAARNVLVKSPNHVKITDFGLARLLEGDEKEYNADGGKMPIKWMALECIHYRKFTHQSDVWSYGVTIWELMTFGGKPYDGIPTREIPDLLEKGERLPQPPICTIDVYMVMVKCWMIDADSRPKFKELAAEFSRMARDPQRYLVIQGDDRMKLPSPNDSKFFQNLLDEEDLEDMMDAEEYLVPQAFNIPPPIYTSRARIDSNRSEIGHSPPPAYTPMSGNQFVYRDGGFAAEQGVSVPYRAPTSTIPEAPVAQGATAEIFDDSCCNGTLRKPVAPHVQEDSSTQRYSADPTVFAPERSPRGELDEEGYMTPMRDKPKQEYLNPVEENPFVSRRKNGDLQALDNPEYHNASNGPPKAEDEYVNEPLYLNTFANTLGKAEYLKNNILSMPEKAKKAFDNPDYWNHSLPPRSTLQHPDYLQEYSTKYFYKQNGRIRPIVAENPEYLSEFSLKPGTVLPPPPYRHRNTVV

Regarding `COc1cc2c(Oc3ccc(-c4nc5ccccc5s4)cc3)ncnc2cc1OCCCN1CCCC1`, the residual activity in [1] was found to be 103%; in assay [2] it was 48%; in [3], 102%; in assay [4], 98%; in assay [5], 15%; in [6] it was 95%. Further, the residual activity in assay [7] was 82%; in [8], 87%; in [9] it was 98%; in [10] it was 59%; in assay [11] it was 117%; in assay [12] it was 102%. For the same compound, the residual activity turned out to be 97% in assay [13], 96% in [14], 132% in assay [15] and 88% in [16].

`COc1cc2c(Oc3ccc(-c4nc5ccccc5s4)cc3F)ncnc2cc1OCCCN1CCN(C)CC1`: the residual activity in [1] was 98%; in [2] it was 18%; in [3], 100%; in assay [4], 86%; in assay [5] it was 30%; in assay [6], 97%. In addition, the residual activity in [7] stood at 98%; in assay [8] it was 86%; in assay [9], 102%; in assay [10] it was 73%; in [11], 63%; in assay [12], 114%. The residual activity in [13] amounted to 95%; in [14], 97%; in assay [15], 87%; in assay [16], 92%.

`COc1cc2c(Oc3ccc(-c4nc5ccccc5s4)cc3)ncnc2cc1OCCCN1CCN(C)CC1`: the residual activity in assay [1] was 102%; in assay [2], 19%; in assay [3] it was 87%; in assay [4], 96%; in [5], 20%; in assay [6], 91%. For the same compound, the residual activity in assay [7] was 91%; in [8] it was 86%; in assay [9], 97%; in assay [10] it was 57%; in [11], 99%; in assay [12], 106%. The residual activity amounted to 124% in [13], 92% in assay [14], 95% in assay [15] and 91% in assay [16].

For the origin of these results see ChEMBL document CHEMBL1152560, “Substituted 2-arylbenzothiazoles as kinase inhibitors: hit-to-lead optimization” (Bioorg Med Chem, 2009).
